Measured values from patent US20100152434A1, “Protein Kinase-binding Nucleosides and Associated Methods” (priority 2007, published 2010).
Where two headings read alike, the source gives them in different places.

Columns and labels:
HOP-62 = conditions: HOP-52
NCI-H226 [1] = test system: NCI-H226
NCI-H23 [2] = test system: NCI-H23
ACHN [3] = test system: ACHN
RXF 393 = conditions: RXF 393
TK-10 [4] = test system: TK-10
MCF7 [5] = test system: MCF7
NCI-H226 [6] = experiment: cells; conditions: Homo sapiens, NCI-H226
NCI-H23 [7] = experiment: cells; conditions: Homo sapiens, NCI-H23
KM12 = experiment: cells; conditions: Homo sapiens, KM12
SF-539 = experiment: cells; conditions: Homo sapiens, SF-539
SK-MEL-2 = experiment: cells; conditions: Homo sapiens, SK-MEL-2
SK-MEL-5 = experiment: cells; conditions: Homo sapiens, SK-MEL-5
OVCAR-8 = experiment: cells; conditions: Homo sapiens, OVCAR-8
788-0 = experiment: cells; conditions: Homo sapiens, 786-0
ACHN [8] = experiment: cells; conditions: Homo sapiens
TK-10 [9] = experiment: cells; conditions: Homo sapiens, TK-10
UO-31 = experiment: cells; conditions: Homo sapiens, UO-31
MCF7 [10] = experiment: cells; conditions: Homo sapiens, MCF7
T-47D = experiment: cells; conditions: Homo sapiens, T47D
[11] = Log10 Concentration −4.0, Molar
[12] = Log10 Concentration −5.0, Molar
[13] = Log10 Concentration −6.0, Molar
[14] = Log10 Concentration −7.0, Molar
[15] = Log10 Concentration −8.0, Molar

CNC(=O)NC[C@H]1O[C@@H](n2cnc3c(NC(=O)Nc4ccccc4)ncnc32)C(O[Si](C)(C)C(C)(C)C)[C@H]1O[Si](C)(C)C(C)(C)C (some centres unmarked) [Compound 25, 2′,3′-Bis-O-(tert-butyldimethylsilyl)-5-deoxy-5′-[(N-methylcarbamoyl)amino]-N^6-(N-phenylcarbamoyl)adenosine]
TGI (HOP-62): 1.71E−5 Molar | Percent Growth (HOP-62; Log10 Concentration −4.0 Molar): −55% | Percent Growth (HOP-62; Log10 Concentration −5.0 Molar): 25% | Percent Growth (HOP-62; Log10 Concentration −6.0 Molar): 105% | Percent Growth (HOP-62; Log10 Concentration −7.0 Molar): 108% | Percent Growth (HOP-62; Log10 Concentration −8.0 Molar): 102% | TGI (NCI-H226 [1]): 3.63E−6 Molar | Percent Growth (NCI-H226 [1]; [11]): −48% | Percent Growth (NCI-H226 [1]; [12]): −7% | Percent Growth (NCI-H226 [1]; [13]): 105% | Percent Growth (NCI-H226 [1]; [14]): 106% | Percent Growth (NCI-H226 [1]; [15]): 102% | TGI (NCI-H23 [2]): 9.07E−6 Molar | Percent Growth (NCI-H23 [2]; [11]): −53% | Percent Growth (NCI-H23 [2]; [12]): −5% | Percent Growth (NCI-H23 [2]; [13]): 105% | Percent Growth (NCI-H23 [2]; [14]): 106% | Percent Growth (NCI-H23 [2]; [15]): 100% | TGI (NCI-H522): 7.14E−6 Molar | Percent Growth (NCI-H522; [11]): −49% | Percent Growth (NCI-H522; [12]): −15% | Percent Growth (NCI-H522; [13]): 90% | Percent Growth (NCI-H522; [14]): 90% | Percent Growth (NCI-H522; [15]): 92% | TGI (SF-295): 3.18E−5 Molar | Percent Growth (SF-295; [11]): −7% | Percent Growth (SF-295; [12]): 7% | Percent Growth (SF-295; [13]): 111% | Percent Growth (SF-295; [14]): 107% | Percent Growth (SF-295; [15]): 103% | TGI (OVCAR-4): 4.39E−5 Molar | Percent Growth (OVCAR-4; [11]): −4% | Percent Growth (OVCAR-4; [12]): 7% | Percent Growth (OVCAR-4; [13]): 100% | Percent Growth (OVCAR-4; [14]): 106% | Percent Growth (OVCAR-4; [15]): 106% | TGI (SK-OV-3): >1.00E−4 Molar | Percent Growth (SK-OV-3; [11]): 5% | Percent Growth (SK-OV-3; [12]): 39% | Percent Growth (SK-OV-3; [13]): 107% | Percent Growth (SK-OV-3; [14]): 113% | Percent Growth (SK-OV-3; [15]): 106% | TGI (ACHN [3]): >1.00E−4 Molar | Percent Growth (ACHN [3]; [11]): 2% | Percent Growth (ACHN [3]; [12]): 10% | Percent Growth (ACHN [3]; [13]): 105% | Percent Growth (ACHN [3]; [14]): 108% | Percent Growth (ACHN [3]; [15]): 107% | TGI (RXF 393): 4.01E−6 Molar | Percent Growth (RXF 393; [11]): −77% | Percent Growth (RXF 393; [12]): −73% | Percent Growth (RXF 393; [13]): 111% | Percent Growth (RXF 393; [14]): 73% | Percent Growth (RXF 393; [15]): 96% | TGI (TK-10 [4]): 7.26E−5 Molar | Percent Growth (TK-10 [4]; [11]): −2% | Percent Growth (TK-10 [4]; [12]): 14% | Percent Growth (TK-10 [4]; [13]): 112% | Percent Growth (TK-10 [4]; [14]): 113% | Percent Growth (TK-10 [4]; [15]): 110% | TGI (DU-145): 5.71E−6 Molar | Percent Growth (DU-145; [11]): −89% | Percent Growth (DU-145; [12]): −35% | Percent Growth (DU-145; [13]): 109% | Percent Growth (DU-145; [14]): 107% | Percent Growth (DU-145; [15]): 103% | TGI (MCF7 [5]): 1.93E−5 Molar | Percent Growth (MCF7 [5]; [11]): −15% | Percent Growth (MCF7 [5]; [12]): 5% | Percent Growth (MCF7 [5]; [13]): 83% | Percent Growth (MCF7 [5]; [14]): 96% | Percent Growth (MCF7 [5]; [15]): 99% | GI50 (NCI-H226 [6]): 3.1 µM | IC50 (NCI-H226 [6]): > 100 µM | GI50 (NCI-H23 [7]): 3.17 µM | IC50 (NCI-H23 [7]): 85 µM | GI50 (KM12): 2.13 µM | IC50 (KM12): 8.05 µM | GI50 (SF-539): 3.07 µM | IC50 (SF-539): 94.3 µM | GI50 (SK-MEL-2): 2.45 µM | IC50 (SK-MEL-2): 28.3 µM | GI50 (SK-MEL-5): 1.98 µM | IC50 (SK-MEL-5): 13.6 µM | GI50 (OVCAR-8): 4.01 µM | IC50 (OVCAR-8): > 100 µM | GI50 (788-0): 2.04 µM | IC50 (788-0): 6.75 µM | GI50 (ACHN [8]): 3.83 µM | IC50 (ACHN [8]): > 100 µM | GI50 (TK-10 [9]): 4.29 µM | IC50 (TK-10 [9]): > 100 µM | GI50 (UO-31): 2.5 µM | IC50 (UO-31): > 100 µM | GI50 (MCF7 [10]): 2.69 µM | IC50 (MCF7 [10]): > 100 µM | GI50 (T-47D): 2.87 µM | IC50 (T-47D): > 100 µM
